The assay addresses T1, AtCNGC10 (AtCNGC10-GFP) (Arabidopsis thaliana, UniProt Q9LNJ0).
T1 construct: gene CNGC10; full-length cDNA fused to EGFP (pNC10kozG) or to EGFP and FLAG (pTGC10F), transiently expressed in HEK293
T1 sequence (Q9LNJ0 1-711): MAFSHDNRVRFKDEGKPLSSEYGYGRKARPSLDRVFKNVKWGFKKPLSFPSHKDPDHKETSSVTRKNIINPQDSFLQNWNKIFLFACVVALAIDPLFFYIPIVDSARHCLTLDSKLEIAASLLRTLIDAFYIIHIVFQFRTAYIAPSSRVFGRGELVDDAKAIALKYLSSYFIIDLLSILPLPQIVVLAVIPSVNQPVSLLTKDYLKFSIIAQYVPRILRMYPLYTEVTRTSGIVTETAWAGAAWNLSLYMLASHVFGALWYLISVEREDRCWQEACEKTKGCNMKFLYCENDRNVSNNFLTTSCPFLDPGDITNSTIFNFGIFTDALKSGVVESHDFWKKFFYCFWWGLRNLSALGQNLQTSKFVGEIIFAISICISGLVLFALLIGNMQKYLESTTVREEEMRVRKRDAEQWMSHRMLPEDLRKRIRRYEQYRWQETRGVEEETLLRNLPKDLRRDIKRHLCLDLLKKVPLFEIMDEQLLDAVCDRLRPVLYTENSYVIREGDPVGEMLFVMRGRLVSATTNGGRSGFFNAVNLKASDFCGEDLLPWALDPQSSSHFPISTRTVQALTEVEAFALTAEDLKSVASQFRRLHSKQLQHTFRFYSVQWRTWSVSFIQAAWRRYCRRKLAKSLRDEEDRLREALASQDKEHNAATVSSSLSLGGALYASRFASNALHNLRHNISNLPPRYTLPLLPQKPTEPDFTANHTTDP
As to the kind of experiment: whole-cell patch clamp, HEK293. It counts as cell-based. To be noted: 100 uM in bath; 145 mM K+ out / 145 mM N-methyl-D-glucamine in; pH 7.4 bath, 25 C; activator; control was non-transfected cells, no record without the nucleotide described. (In general: In patch-clamp work, channel activity is measured electrically.)

Each structure is given as a SMILES string.

As for `CCCC(=O)Nc1nc2c(ncn2[C@@H]2O[C@@H]3COP(=O)(O)O[C@H]3[C@H]2OC(=O)CCC)c(=O)[nH]1` [dibutyryl cGMP], the “whole-cell patch clamp, HEK293” value was “heterologously expressed AtCNGC10 conducted significant inward K^+ currents with the application of dibutyryl cGMP”.

For the origin of these results see PMC2031891, “The cyclic nucleotide gated cation channel AtCNGC10 traffics from the ER via Golgi vesicles to the plasma membrane of Arabidopsis root and leaf cells” (BMC Plant Biology, 2007).
